Laboratory results as given in patent US4699924A, “Skin treatment composition” (priority 1983, dated 1987).
Where a name gives a salt, the structure may show the parent alone. Read-outs that look alike come from different tables or passages of the source.

How the values were obtained:
physchem = conditions: octanol/water
[1] = Cloud point temperature of a 0.025M aqueous solution of polyoxyethylene(8)nonylphenyl ether with 5% by weight additive; type: physicochemical; conditions: for Effect on the cloud point temperature of nonionic surfactants: screening of non-electrolytes, in words
Method: An activity enhancer is accordingly defined as a non-electrolyte which is capable, at a concentration of 5% by weight of increasing the cloud point temperature of a 0.025M aqueous solution of polyoxyethylene(8)nonylphenyl ether by at least 10° C. Preferably the activity enhancer is one which is capable of increasing the cloud point temperature by at least 15° C., most preferably by at least 20° C.
It should be explained that the "cloud point" is a measure of the inverse solubility of a nonionic surfactant with temperature and can be determined by heating a standard clear aqueous solution of the nonionic surfactant until the solution becomes visibly cloudy and then measuring the temperature.
The cloud point temperature can conveniently be determined automatically using the equipment and method described by Baum et al in Mat. Res. Std. 4 26 (1964).
Examples of suitable compounds functioning as activity enhancers, together with the respective elevated cloud point temperature obtained in each case when using the standard test defined hereinbefore are listed below in Table 1.

[2] = test system: guinea pig foot pad stratum corneum; experiment: Increase in extensibility of guinea pig foot pad stratum corneum; parameters: Increase in stratum corneum extensibility: unit not given here; conditions: 0.2 M 2-hydroxyoctanoic acid + additive at 5% w/w; 3 hours at 20° C.; relative humidity 65%
Method: The ability of an additive to enhance the delivery to skin of 2-hydroxyoctanoic acid was measured in terms of the increase in extensibility of guinea pig foot pad stratum corneum following contact with each solution.
In this experiment, pieces of guinea pig foot pad stratum corneum, equilibrated at a relative humidity of 65%, were immersed in each solution for 3 hours at 20° C., and then removed, blotted dry and re-equilibrated at the same relative humidity. The extensibility of each piece of guinea pig foot pad stratum corneum was measured before and after this treatment in an extensiometer according to the method described in European Pat. No. 7785.

[3] = Table 1, activity enhancer 5% by weight, 0.025 M polyoxyethylene(8)nonylphenyl ether
[4] = Table 1, activity enhancer 5% by weight, control 33.5 °C., in °C
[5] = table of extensibility results, additive at 5% w/w, in °C
[6] = Table 2, compound which is not an activity enhancer, 5% by weight
[7] = Table 2, compound which is not an activity enhancer, 5% by weight, control 33.5 °C.

COc1cc(NS(=O)(=O)c2ccc(N)cc2)ncn1 [sulphamonomethoxine, reference compound]
logP (physchem): 0.85

CC(O)CCC(C)O (stereo not drawn) [Hexan-2,5-diol]
Cloud point temperature [1, 3]: 52.0 °C | Elevation of cloud point temperature [1, 4]: 18.5 | Elevation of cloud point temperature [1, 5]: 18.5 | Increase in stratum corneum extensibility [2]: 37.0

O=Cc1ccccc1O [O--hydroxybenzaldehyde]
logP (physchem): 1.7

CC(O)CO (stereo not drawn) [Propan-1,2-diol]
Cloud point temperature [1, 6]: 39.0 °C | Elevation of cloud point temperature [1, 7]: 5.5 °C | Elevation of cloud point temperature [1, 5]: 5.5 | Increase in stratum corneum extensibility [2]: 12.6

CC[C@H]1OC(=O)[C@H](C)[C@@H](O[C@H]2C[C@@](C)(OC)[C@@H](O)[C@H](C)O2)[C@H](C)[C@@H](O[C@@H]2O[C@H](C)C[C@H](N(C)C)[C@H]2O)[C@](C)(O)C[C@@H](C)C(=O)[C@H](C)[C@@H](O)[C@]1(C)O [erythromycin, reference compound]
Log partition coefficient (octanol/water): 1.26

CC1(C)S[C@@H]2[C@H](NC(=O)Cc3ccccc3)C(=O)N2[C@H]1C(=O)O [benzyl pencillin, reference compound]
Log partition coefficient (octanol/water): 1.83

Nc1ccc(S(=O)(=O)Nc2ccnn2-c2ccccc2)cc1 [sulphaphenzole, reference compound]
logP (physchem): 1.57

OC[C@@H](O)[C@@H](O)[C@H](O)[C@@H](O)CO [sorbitol]
Effect on the cloud point temperature of nonionic surfactants [1]: reduce the cloud point temperature

Cc1cccc(S(N)(=O)=O)c1 [m-methylbenzene sulphonamide]
Log partition coefficient (octanol/water at 20° C.): 0.85

O=C1C[C@@H]2OCC=C3CN4CC[C@]56c7ccccc7N1[C@H]5[C@H]2[C@H]3C[C@H]46 [strychnine]
Log partition coefficient (octanol/water): 1.93

Nc1ncnc2c1ncn2[C@@H]1O[C@H](COP(=O)(O)OP(=O)(O)OP(=O)(O)O)[C@@H](O)[C@H]1O [adenosine triphosphate]
logP (physchem): 1.64

CC(C)O [Propan-2-ol]
Cloud point temperature [1, 3]: 56.0 °C | Elevation of cloud point temperature [1, 4]: 22.5

O=C1CCCN1 [2-pyrrolidone]
Elevation of cloud point temperature [1, 5]: 15.5 | Increase in stratum corneum extensibility [2]: 28.0

COC1=CC=C2[C@H]3Cc4ccc(OC)c5c4[C@@]2(CCN3C)[C@H]1O5 [thebaine]
logP (physchem): 1.91

CCOC(=O)CC(O)(CC(=O)OCC)C(=O)OCC [triethyl citrate]
Log partition coefficient (octanol/water at 20° C.): 0.67

CC(C)(C)O [2-methyl propan-2-ol]
Cloud point temperature [1, 3]: 55.0 °C | Elevation of cloud point temperature [1, 4]: 21.5

CCOC(=O)C(C)O (stereo not drawn) [Ethyl-2hydroxypropanoate]
Cloud point temperature [1, 3]: 52.1 °C | Elevation of cloud point temperature [1, 4]: 18.6

O=C(O)c1ccccc1O [salicylic acid, reference compound]
Log partition coefficient (octanol/water at 20° C.): 2.26

NC(=O)c1cccnc1 [niacinamide, reference compound]
Log partition coefficient (octanol/water at 20° C.): 1.37

CCC1OC(=O)C(C)C(OC2CC(C)(OC)C(O)C(C)O2)C(C)C(OC2OC(C)C(O)C(N(C)C)C2O)C(C)(O)CC(C)C(=O)C(C)C(O)C1(C)O (stereo not drawn) [4'-hydroxyerythromycin]
Log partition coefficient (octanol/water): 1.44

OC1CCCCC1 [Cyclohexanol]
Cloud point temperature [1, 6]: 11.0 °C | Elevation of cloud point temperature [1, 7]: -22.5 °C | Effect on the cloud point temperature of nonionic surfactants [1]: reduce the cloud point temperature

CC1(C)SC2C(NC(=O)C(O)c3ccccc3)C(=O)N2C1C(=O)O (stereo not drawn) [α-hydroxy benzyl penicillin]
Log partition coefficient (octanol/water at 20° C.): 1.40

CCOCCOCCO [POE(2) ethyl ether, polyoxyethylene(2) ethyl ether]
Cloud point temperature [1, 3]: 46.0 °C | Elevation of cloud point temperature [1, 4]: 12.5

OCCCCO [Butan-1,4-diol]
Cloud point temperature [1, 3]: 45.0 °C | Elevation of cloud point temperature [1, 4]: 11.5

CC(O)CCO (stereo not drawn) [Butan-1,3-diol]
Cloud point temperature [1, 6]: 41.5 °C | Elevation of cloud point temperature [1, 7]: 8.0 °C

CC(O)C(=O)O (stereo not drawn) [2-hydroxypropionic acid]
Cloud point temperature [1, 3]: 45.0 °C | Elevation of cloud point temperature [1, 4]: 11.5 | Elevation of cloud point temperature [1, 5]: 11.5 | Increase in stratum corneum extensibility [2]: 17.1

OCC(O)CO [Propan-1,2,3-triol]
Cloud point temperature [1, 6]: 32.2 °C | Elevation of cloud point temperature [1, 7]: -1.3 °C | Effect on the cloud point temperature of nonionic surfactants [1]: reduce the cloud point temperature | Elevation of cloud point temperature [1, 5]: -1.3 | Increase in stratum corneum extensibility [2]: 5

OCCO [Ethan-1,2-diol]
Cloud point temperature [1, 6]: 33.0 °C | Elevation of cloud point temperature [1, 7]: -0.5 °C | Elevation of cloud point temperature [1, 5]: -0.5 | Increase in stratum corneum extensibility [2]: 5

CN1C(=O)NC(=O)C(C)(C)C1=O [5,5-dimethyl, 1-methyl barbituric acid]
logP (physchem): 1.09

O=C(O)c1cccc(O)c1 [m-hydroxybenzoic]
Log partition coefficient (octanol/water): 1.50

CCN(CC)CCOC(=O)c1ccc(N)cc1 [procaine, reference compound]
Log partition coefficient (octanol/water): 1.87

O=C1NS(=O)(=O)c2ccccc21 [saccharin]
Log partition coefficient (octanol/water): 0.91

Oc1ccc(O)cc1 [p-dihyroxybenzene]
Log partition coefficient (octanol/water): 0.59

c1ccc2[nH]cnc2c1 [benzimidazole]
Log partition coefficient (octanol/water at 20° C.): 1.34

NS(=O)(=O)c1cccc([N+](=O)[O-])c1 [m-nitrobezene sulphonamide]
Log partition coefficient (octanol/water at 20° C.): 0.55

CC(C)CO [2-methyl propan-1-ol]
Cloud point temperature [1, 6]: 41.0 °C | Elevation of cloud point temperature [1, 7]: 7.5 °C

CC(C)=O [Acetone]
Cloud point temperature [1, 3]: 46.3 °C | Elevation of cloud point temperature [1, 4]: 12.8

CC(=O)Nc1ccccc1C(=O)O [N--acetyl O--aminobenzoic acid]
Log partition coefficient (octanol/water at 20° C.): 1.88

CCC1(c2ccccc2)C(=O)NC(=O)NC1=O [5-ethyl-5-phenyl barbituric acid, reference compound]
Log partition coefficient (octanol/water at 20° C.): 1.42

CC(N)Cc1ccccc1 (stereo not drawn) [amphetamine, reference compound]
Log partition coefficient (octanol/water at 20° C.): 1.63

C1COCCO1 [1,4 Dioxane]
Cloud point temperature [1, 3]: 44.0 °C | Elevation of cloud point temperature [1, 4]: 10.5

Nc1ccc(C(=O)O)cc1 [p-aminobenzoic acid, reference compound]
Log partition coefficient (octanol/water): 0.68

C[S+](C)[O-] [Dimethyl sulphoxide]
Cloud point temperature [1, 6]: 33.9 °C | Elevation of cloud point temperature [1, 7]: 0.4 °C | Elevation of cloud point temperature [1, 5]: -0.5 | Increase in stratum corneum extensibility [2]: 5

Cc1ccccc1S(N)(=O)=O [o-methylbenzene sulphonamide]
Log partition coefficient (octanol/water): 0.84

O=C(O)CCCCCCCC(=O)O [azelaic acid, reference compound]
Log partition coefficient (octanol/water): 1.57

C1COCCN1 [Morpholine]
Cloud point temperature [1, 6]: 40.0 °C | Elevation of cloud point temperature [1, 7]: 6.5 °C

CC(O)COCC(C)O (stereo not drawn) [Di(2-hydroxypropyl) ether]
Cloud point temperature [1, 3]: 44.8 °C | Elevation of cloud point temperature [1, 4]: 11.3 | Elevation of cloud point temperature [1, 5]: 11.3 | Increase in stratum corneum extensibility [2]: 21.6

CCCCO [Butan-1-ol]
Cloud point temperature [1, 6]: 36.3 °C | Elevation of cloud point temperature [1, 7]: 2.8 °C | Effect on the cloud point temperature of nonionic surfactants [1]: reduce the cloud point temperature | Elevation of cloud point temperature [1, 5]: 2.8 | Increase in stratum corneum extensibility [2]: 13.2

Oc1ccccc1O [o-dihydroxybenzene]
Log partition coefficient (octanol/water at 20° C.): 0.80

CCCO [Propan-1-ol]
Cloud point temperature [1, 3]: 53.0 °C | Elevation of cloud point temperature [1, 4]: 19.5

COc1ccc2c3c1O[C@H]1[C@@H](O)C=C[C@H]4[C@@H](C2)N(C)CC[C@@]341 [codeine, reference compound]
logP (physchem): 1.01

C1CCOC1 [Tetrahydrofuran]
Cloud point temperature [1, 3]: 45.0 °C | Elevation of cloud point temperature [1, 4]: 11.5

CCOC(=O)c1cccnc1 [ethyl nicotinate]
Log partition coefficient (octanol/water at 20° C.): 1.32

CCCCCCC(=O)C(=O)O [2-ketooctanoic acid]
logP (physchem): 3.2

COCCOCCO [POE(2) methyl ether]
Cloud point temperature [1, 3]: 43.5 °C | Elevation of cloud point temperature [1, 4]: 10.0

NS(=O)(=O)c1ccc([N+](=O)[O-])cc1 [p-nitrobenzene sulphonamide]
Log partition coefficient (octanol/water at 20° C.): 0.64

Cc1ccc(S(N)(=O)=O)cc1 [p-methylbenzene sulphonamide]
Log partition coefficient (octanol/water at 20° C.): 0.82

CC(O)CC(C)O (stereo not drawn) [Pentan-2,4-diol]
Cloud point temperature [1, 3]: 48.0 °C | Elevation of cloud point temperature [1, 4]: 14.5 | Elevation of cloud point temperature [1, 5]: 14.5 | Increase in stratum corneum extensibility [2]: 17.0

4-methyl-6-(2,4,6-trimethyl-pentyl)-2-(1H)--pyridone
Log partition coefficient (octanol/water): 1.28

Nc1ncnc2c1ncn2[C@@H]1O[C@H](COP(=O)(O)OP(=O)(O)O)[C@@H](O)[C@H]1O [adenosine diphosphate]
logP (physchem): 0.89
